In ChEMBL document CHEMBL3301451, “MMV Malaria Box gametocyte functional viability assay screening”:

How the values were obtained:
[1] = test system: Plasmodium falciparum; assay: (§1) MMV: P. falciparum NF54 functionally mature Stage V gametocytes were incubated for 24 hr in the presence of the test compounds. Gamete formation was then triggered by addition of 2uM xantheurenic acid and temperature decrease to ~20C. Male gamete exflagellation was recorded and analysed by automated microscopy after 20 min. All compounds were tested in 4 independent experiments and data presented here is the mean. IC50s determined for selected compounds.; assay type: functional, organism-based
[2] = test system: Plasmodium berghei; assay: (§2) MMV: P. berghei-infected blood was withdrawn from mice by cardiac pucture before being immediately added to ookinete culture medium containing test compounds. 26 hr later, GFP-positive ookinetes were identified and counted by automated microscopy. All compounds were tested in 4 independent experiments and data presented here is the mean. IC50s determined for selected compounds.; assay type: functional, organism-based
[3] = test system: Plasmodium falciparum; assay: as §1, with “Female” for “Male”, “formation” for “exflagellation”, “24 hr later” for “and analysed”, “detection of surface labelling of female gametes with a Cy3-conjugated antibody reactive to Pfs25.” for “after 20 min.”; assay type: functional, organism-based; details: NF54, 24 h
[4] = test system: Plasmodium falciparum; assay: as §1, with “mean.” for “mean. IC50s determined for selected compounds.”; assay type: functional; parameters: concentration or dose not given beside the values
[5] = test system: Plasmodium berghei; assay: as §2, with “mean.” for “mean. IC50s determined for selected compounds.”; assay type: functional; parameters: concentration or dose not given beside the values
[6] = test system: Plasmodium falciparum; assay: as §1, with “Female” for “Male”, “formation” for “exflagellation”, “24 hr later” for “and analysed”, “detection of surface labelling of female gametes with a Cy3-conjugated antibody reactive to Pfs25.” for “after 20 min.”, “mean.” for “mean. IC50s determined for selected compounds.”; assay type: functional; parameters: concentration or dose not given beside the values; details: NF54, 24 h

SMILES	IC50 [1] [nM]	IC50 [2] [nM]	IC50 [3] [nM]	inhibition [4] [%]	inhibition [5] [%]	inhibition [6] [%]
OC1=C2C(=Nc3ccccc3SC2c2ccccc2)c2ccccc21 (configuration not stated)	3240	12800	> 50000	58.8	97.46	-16.4
CCOC(=O)c1cn(CC)c2cc(N(C)CCc3ccc(OC)c(OC)c3)c(F)cc2c1=O	45		> 50000	71.2	20.52	-15
CCn1c(CN2CCN(Cc3ccccc3)CC2)nc2cc(NC(=O)c3cccs3)ccc21	288	487	> 50000	67.4	78.13	-15.4
COc1ccccc1NC1=C(N2CCCCC2)C(=O)c2ccccc2C1=O	96	4250	> 50000	96.8	-14.08	-15.9
CCOC(=O)c1cnc2ccc(CC)cc2c1O	570	287	> 50000	65.8	97.88	9.93
OC1CCCCC1C1(NC(=S)Nc2ccccc2)CCCCC1 (configuration not stated)	384	16400	614	80.7	14.01	73.8
CCOC(=O)c1ccc2nc(-c3ccccc3)cc(O)c2c1	237	208	> 50000	63.6	27.95	2.21
CN(C)CCCNc1c2ccccc2nc2ccccc12	130	292	1070	97.5	96.2	24.6
Cl.Clc1cc(Br)ccc1-c1ccc(CNCC2CCNCC2)o1	25.5	7820	159	74.1	-9.542	38.1
COc1ccc(C2c3ccc4ccccc4c3Oc3ncn(CCCN(C)C)c(=N)c32)cc1 (configuration not stated)	183	3490	473	83.6	-7.365	27.3

The remaining compounds from weak to strong by IC50 [1], led by results:

IC50 [1] [nM]	IC50 [2] [nM]	IC50 [3] [nM]	SMILES	inhibition [4] [%]	inhibition [5] [%]	inhibition [6] [%]
3710	5760	> 50000	COc1ccc(-c2cc3c(nn2)-c2ccccc2C3=O)cc1	71.3	2.461	-5.89
3410	2270	> 50000	OC1=C2C(=Nc3ccccc3SC2c2ccc(Br)cc2)c2ccccc21 (configuration not stated)	62.9	56.77	8.27
2140	1060	> 50000	O=C1c2ccccc2C2=Nc3ccccc3SC(c3cccc(F)c3)C12 (configuration not stated)	70.7	71.31	11
977	991	446	CN(C)c1ccc(C(O)(c2ccc(N(C)C)cc2)c2ccc(N(C)C)cc2)cc1 [METHYLROSANILINE]	19.7	62.53	44.6
481	96.2	> 50000	COc1ccc(C=C2SC(=N)N(c3ccccc3OC)C2=O)cc1	77.3	72.74	-7.34
365	2190	> 50000	CCOC(=O)c1cn(CC)c2cc(N3CCCCC3)c(F)cc2c1=O	92.4	41.89	-15.2
241	464	384	COc1cccc(NC(=O)[C@H](C(C)C)n2c(=O)[nH]c3ccccc3c2=O)c1	70.9	58.53	36.6
139	6500	189	CC1CC2=C(CC1CNCCCN(C)C)C(C)(C)CCC2 (configuration not stated)	62.3	-10.78	56.1
